Like-named read-outs stand apart in the source and are kept apart here.
Legend:
Tyk2 kinase domain (DH1) = Tyk2 kinase domain (DH1) (Homo sapiens (Human), UniProt P29597); assay: Tyk2 Radioactive Kinase Assay; type: biochemical; conditions: for inhibition at 10 µM: read-out: Tyk2 JH1% Inhibition @ 10 μM
Description: (§1) The Tyk2 and JAK2 radioactive kinase assay measures the percent inhibition at the Tyk2 kinase domain (DH1) and the percent inhibition at the JAK2 kinase domain (JH1). Results of the assay are expressed as percent inhibition at 10 μM.

JAK2 kinase domain (JH1) = JAK2 kinase domain (JH1) (Homo sapiens (Human), UniProt O60674); assay: JAK2 Radioactive Kinase Assay; type: biochemical; conditions: for inhibition at 10 µM: read-out: JAK2 JH1% Inhibition @ 10 μM
Chain of JAK2 kinase domain (JH1) (O60674 849-1124): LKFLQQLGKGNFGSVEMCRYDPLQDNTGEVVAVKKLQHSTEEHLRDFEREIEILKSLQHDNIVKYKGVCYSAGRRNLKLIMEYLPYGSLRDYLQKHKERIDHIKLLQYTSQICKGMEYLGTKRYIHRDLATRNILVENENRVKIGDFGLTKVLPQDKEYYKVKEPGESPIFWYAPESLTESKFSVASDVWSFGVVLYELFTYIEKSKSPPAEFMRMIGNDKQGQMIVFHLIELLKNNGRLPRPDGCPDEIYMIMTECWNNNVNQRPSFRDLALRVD
Description: as §1

[1] = biological target: human TYK2 (JH2domain-pseudokinase) (Homo sapiens (Human), UniProt P29597); assay: TYK2 JH2 Domain Binding Assay (KINOMEscan)
Chain of human TYK2 (JH2domain-pseudokinase) (P29597 556-888): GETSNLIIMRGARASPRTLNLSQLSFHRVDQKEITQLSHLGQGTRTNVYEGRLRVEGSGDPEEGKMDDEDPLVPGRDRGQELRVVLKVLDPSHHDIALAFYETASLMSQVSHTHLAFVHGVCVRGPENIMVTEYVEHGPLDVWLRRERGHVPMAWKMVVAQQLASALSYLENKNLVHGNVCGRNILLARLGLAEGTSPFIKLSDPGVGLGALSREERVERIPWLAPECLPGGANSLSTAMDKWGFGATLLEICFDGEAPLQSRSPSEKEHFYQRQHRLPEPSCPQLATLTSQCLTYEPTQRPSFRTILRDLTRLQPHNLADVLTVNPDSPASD
Summary of the method: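 Pseudokinase domain binding was measured by qPCR of tagged, bead-retained kinase after 1 h room-temperature competition, with 0.9% DMSO and compound up to 30,000 nM in 3-fold steps. Hill-equation Kd, duplicate.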

Chain of Tyk2 kinase domain (DH1) (P29597 897-1176): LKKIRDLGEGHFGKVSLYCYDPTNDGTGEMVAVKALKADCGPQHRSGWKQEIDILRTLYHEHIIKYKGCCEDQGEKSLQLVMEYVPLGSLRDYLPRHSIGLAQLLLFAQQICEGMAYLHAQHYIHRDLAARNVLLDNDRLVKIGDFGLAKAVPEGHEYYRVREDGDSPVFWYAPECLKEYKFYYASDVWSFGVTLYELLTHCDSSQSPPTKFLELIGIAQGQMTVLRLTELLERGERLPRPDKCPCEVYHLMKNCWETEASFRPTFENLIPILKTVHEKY

Row | Compound | inhibition at 10 µM (Tyk2 kinase domain (DH1); compound at 10 μM, ATP 10 μM) | inhibition at 10 µM (JAK2 kinase domain (JH1); compound at 10 μM, ATP 10 μM) | Kd [1] | inhibition at 10 µM (Tyk2 kinase domain (DH1); 10 μM compound, 10 μM ATP) | inhibition at 10 µM (JAK2 kinase domain (JH1); 10 μM compound, 10 μM ATP) | Tyk2 JH1% Inhibition @ 10 μM (Tyk2 kinase domain (DH1); 10 μM compound, 10 μM ATP) | JAK2 JH1% Inhibition @ 10 μM (JAK2 kinase domain (JH1); 10 μM compound, 10 μM ATP)
1 | CNc1cc(Nc2cccn([C@@H]3CCCOC3)c2=O)nc2c(C(=O)N[C@H]3CC[C@H](O)C3)cnn12 (stereo in doubt) [I-702, N-(3-hydroxycyclopentyl)-7-(methylamino)-5-((2-oxo-1-((S)-tetrahydro-2H-pyran-3-yl)-1,2-dihydropyridin-3-yl)amino)pyrazolo[1,5-a]pyrimidine-3-carboxamide] | < 50% | < 50% | 0.2 to 1 nM |  |  |  | 
2 | CNc1cc(-c2cn(C(C)C)c3ncccc23)nc2c(C(=O)N[C@H]3COC[C@H]3O)cnn12 (stereo in doubt) [I-764, N-(4-hydroxytetrahydrofuran-3-yl)-5-(1-isopropyl-1H-pyrrolo[2,3-b]pyridin-3-yl)-7-(methylamino)pyrazolo[1,5-a]pyrimidine-3-carboxamide] | < 50% | < 50% | < 0.2 nM |  |  |  | 
3 | CNc1cc(-c2cn(CCN3CCN(C)CC3)c3ncccc23)nc2c(C(=O)N[C@H]3CC[C@@H]3O)cnn12 (stereo in doubt) [I-852, N-(2-hydroxycyclobutyl)-7-(methylamino)-5-(1-(2-(4-methylpiperazin-1-yl)ethyl)-1H-pyrrolo[2,3-b]pyridin-3-yl)pyrazolo[1,5-a]pyrimidine-3-carboxamide] |  |  | < 0.2 nM | < 50% | < 50% |  | 
4 | CNc1cc(-c2cn(CCN3CCN(C)CC3)c3ncccc23)nc2c(C(=O)N[C@H]3CC[C@@H]3OC)cnn12 (stereo in doubt) [I-885, N-(2-methoxycyclobutyl)-7-(methylamino)-5-(1-(2-(4-methylpiperazin-1-yl)ethyl)-1H-pyrrolo[2,3-b]pyridine-3-yl)pyrazolo[1,5-a]pyrimidine-3-carboxamide] |  |  | < 0.2 nM | < 50% | < 50% |  | 
5 | CNc1cc(Nc2cccn(C3CCCCC3)c2=O)nc2c(C(=O)N[C@H]3COC[C@H]3O)cnn12 (stereo in doubt) [I-1112, 5-((1-cyclohexyl-2-oxo-1,2-dihydropyridin-3-yl)amino)-N-(4-hydroxytetrahydrofuran-3-yl)-7-(methylamino)pyrazolo[1,5-a]pyrimidine-3-carboxamide] |  |  | 0.2 to 1 nM | < 50% | < 50% |  | 
6 | CNc1cc(Nc2cccn(-c3ccc(N4CCOCC4)cc3)c2=O)nc2c(C(N)=O)cnn12 [I-10] | < 50% | < 50% | < 0.2 nM |  |  |  | 
7 | CNc1cc(Nc2cccn(C3CCCCC3)c2=O)nc2c(C(N)=O)cnn12 [I-12] | < 50% | < 50% | 1 to 10 nM |  |  |  | 
8 | CCOc1ccc(-n2cccc(Nc3cc(NC)n4ncc(C(N)=O)c4n3)c2=O)nn1 [I-19] | < 50% | < 50% | 1 to 10 nM |  |  |  | 
9 | CNc1cc(Nc2cccn(-c3ccn(C4CC4)n3)c2=O)nc2c(C(N)=O)cnn12 [I-20] | < 50% | < 50% | < 0.2 nM |  |  |  | 
10 | NC(=O)c1cnn2c(N)cc(Nc3cccc(N4CCCC4)c3Cl)nc12 [I-23] | < 50% | 70 to 90% | 1 to 10 nM |  |  |  | 
11 | NC(=O)c1cnn2c(N)cc(Nc3cccn(-c4ccc(F)cc4)c3=O)nc12 [I-25] | < 50% | < 50% | 0.2 to 1 nM |  |  |  | 
12 | CNc1cc(Nc2cc(C)cn(-c3ccn(C)n3)c2=O)nc2c(C(N)=O)cnn12 [I-26] | < 50% | < 50% | < 0.2 nM |  |  |  | 
13 | CO[C@@H]1CCN(c2cc(Nc3cc(N)n4ncc(C(N)=O)c4n3)cc(C)n2)C1 [I-30] | < 50% | < 50% | 1 to 10 nM |  |  |  | 
14 | CCOc1ccc(-n2cccc(Nc3cc(N)n4ncc(C(N)=O)c4n3)c2=O)nn1 [I-33] | < 50% | < 50% | 0.2 to 1 nM |  |  |  | 

Second part, led by results:

Row | inhibition at 10 µM (Tyk2 kinase domain (DH1); compound at 10 μM, ATP 10 μM) | inhibition at 10 µM (JAK2 kinase domain (JH1); compound at 10 μM, ATP 10 μM) | Kd [1] | inhibition at 10 µM (Tyk2 kinase domain (DH1); 10 μM compound, 10 μM ATP) | inhibition at 10 µM (JAK2 kinase domain (JH1); 10 μM compound, 10 μM ATP) | Compound | Tyk2 JH1% Inhibition @ 10 μM (Tyk2 kinase domain (DH1); 10 μM compound, 10 μM ATP) | JAK2 JH1% Inhibition @ 10 μM (JAK2 kinase domain (JH1); 10 μM compound, 10 μM ATP)
15 | < 50% | < 50% | 0.2 to 1 nM |  |  | CNc1cc(Nc2cccn([C@H]3CCCOC3)c2=O)nc2c(C(=O)N[C@H]3CCC[C@H](O)C3)cnn12 (stereo in doubt) [I-704, N-(3-hydroxycyclohexyl)-7-(methylamino)-5-((2-oxo-1-((R)-tetrahydro-2H-pyran-3-yl)-1,2-dihydropyridin-3-yl)amino)pyrazolo[1,5-a]pyrimidine-3-carboxamide] |  | 
16 | < 50% | < 50% | < 0.2 nM |  |  | CNc1cc(-c2cn(C(C)C)c3ncccc23)nc2c(C(=O)N[C@H]3C[C@@H]3O)cnn12 (stereo in doubt) [I-733, N-((1 S,2S)-2-hydroxycyclopropyl)-5-(1-isopropyl-1H-pyrrolo[2,3-b]pyridin-3-yl)-7-(methylamino)pyrazolo[1,5-a]pyrimidine-3-carboxamide] |  | 
17 | < 50% | < 50% | 0.2 to 1 nM |  |  | CNc1cc(-c2cn(CCN3CCOCC3)c3ncccc23)nc2c(C(=O)N[C@H]3COC[C@H]3O)cnn12 (stereo in doubt) [I-791, N-(4-hydroxytetrahydrofuran-3-yl)-7-(methylamino)-5-(1-(2-morpholinoethyl)-1H-pyrrolo[2,3-b]pyridin-3-yl)pyrazolo[1,5-a]pyrimidine-3-carboxamide] |  | 
18 |  |  | < 0.2 nM | < 50% | < 50% | CNc1cc(-c2cn(CCN3CCN(C)CC3)c3ncccc23)nc2c(C(=O)N[C@H]3CC[C@H]3O)cnn12 (stereo in doubt) [I-851, N-(2-hydroxycyclobutyl)-7-(methylamino)-5-(1-(2-(4-methylpiperazin-1-yl)ethyl)-1H-pyrrolo[2,3-b]pyridin-3-yl)pyrazolo[1,5-a]pyrimidine-3-carboxamide] |  | 
19 |  |  | 1 to 10 nM |  |  | CNc1cc(Nc2cccnc2OC)nc2c(C(=O)N[C@H]3CC[C@@]3(C)O)cnn12 (stereo in doubt) [I-911, N-(2-hydroxy-2-methylcyclobutyl)-5-((2-methoxypyridin-3-yl)amino)-7-(methylamino)pyrazolo[1,5-a]pyrimidine-3-carboxamide] | A (percent inhibition at 10 μM lower than 50) | A (percent inhibition at 10 μM lower than 50)
20 |  |  | < 0.2 nM | < 50% | < 50% | CNc1cc(Nc2cccn([C@H]3C[C@@H]3F)c2=O)nc2c(C(=O)NCC3(CO)CC3)cnn12 (stereo in doubt) [I-1061, 5-((1-(2-fluorocyclopropyl)-2-oxo-1,2-dihydropyridin-3-yl)amino)-N-((1-(hydroxymethyl)cyclopropyl)methyl)-7-(methylamino)pyrazolo[1,5-a]pyrimidine-3-carboxamide] |  | 
21 |  |  | < 0.2 nM | < 50% | < 50% | CNC(=O)c1occc1Nc1cc(NC)n2ncc(C(=O)N[C@H]3CC[C@@H]3OC)c2n1 (stereo in doubt) [I-1111, N-(2-methoxycyclobutyl)-7-(methylamino)-5-((2-(methylcarbamoyl)furan-3-yl)amino)pyrazolo[1,5-a]pyrimidine-3-carboxamide] |  | 
22 |  |  | > 10 nM | < 50% | < 50% | CNc1cc(Nc2cccn(C(C)C)c2=O)nc2c(C(=O)N[C@H]3CC[C@@]3(C)O)cnn12 (stereo in doubt) [I-1116, N-(2-hydroxy-2-methylcyclobutyl)-5-((1-isopropyl-2-oxo-1,2-dihydropyridin-3-yl)amino)-7-(methylamino)pyrazolo[1,5-a]pyrimidine-3-carboxamide] |  | 
23 | < 50% | < 50% | 1 to 10 nM |  |  | CNc1cc(Nc2cnn(C)c2)nc2c(C(N)=O)cnn12 [I-11] |  | 
24 | < 50% | < 50% | 0.2 to 1 nM |  |  | CNc1cc(Nc2cccn(-c3nccs3)c2=O)nc2c(C(N)=O)cnn12 [I-15] |  | 
25 | < 50% | < 50% | < 0.2 nM |  |  | CNc1cc(Nc2cccc(N3CCOCC3)c2Cl)nc2c(C(N)=O)cnn12 [I-18] |  | 
26 | < 50% | 70 to 90% | 0.2 to 1 nM |  |  | Cc1cc(C)cc(Nc2cc(N)n3ncc(C(N)=O)c3n2)c1 [I-21] |  | 
27 | < 50% | 70 to 90% | 0.2 to 1 nM |  |  | NC(=O)c1cnn2c(N)cc(Nc3cccc(N4CCOCC4)c3Cl)nc12 [I-22] |  | 
28 | < 50% | < 50% | < 0.2 nM |  |  | CNc1cc(Nc2cccnc2OC)nc2c(C(N)=O)cnn12 [I-24] |  | 
29 | < 50% | < 50% | 1 to 10 nM |  |  | CNc1cc(Nc2cc(C)nc(N3CCCC3)c2)nc2c(C(N)=O)cnn12 [I-27] |  | 
30 | < 50% | < 50% | > 10 nM |  |  | Cc1cc(Nc2cc(N)n3ncc(C(N)=O)c3n2)cc(N2CCCC2)n1 [I-28] |  | 
31 | < 50% | < 50% | 1 to 10 nM |  |  | CNc1cc(Nc2cc(C)nc(N3CC[C@@H](OC)C3)c2)nc2c(C(N)=O)cnn12 [I-29] |  | 
32 | < 50% | < 50% | 0.2 to 1 nM |  |  | Cc1cc(Nc2cc(N)n3ncc(C(N)=O)c3n2)c(=O)n(-c2cnn(C)c2)c1 [I-32] |  | 
33 | < 50% | < 50% | 0.2 to 1 nM |  |  | Cc1cc(Nc2cc(N)n3ncc(C(N)=O)c3n2)c(=O)n(-c2ccn(C)n2)c1 [I-34] |  | 
34 | < 50% | < 50% | < 0.2 nM |  |  | CNc1cc(Nc2cccn(-c3cccc(C(C)(C)O)n3)c2=O)nc2c(C(N)=O)cnn12 [I-37] |  | 
